From patent publication US20250304620A1, “ANTIMICROBIAL PEPTIDE AND APPLICATION THEREOF” (priority 2023, published 2025)
Values after ≈ are worked out from the molar mass of the structure shown. Marks after values point to notes of the source that are not given here. Non-standard residues stand in square brackets, D forms with d. Residues, ends and D or L forms follow the SMILES beside them. d2Nal = N[C@H](Cc1ccc2ccccc2c1)C(=O)O

Assays:
[1] = system: Staphylococcus aureus (NRS 384); test: microbe, parasite or virus in culture; assay type: cell-based; conditions: NRS 384
Outline: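 CLSI broth microdilution with serial twofold dilutions gave MICs against S. aureus NRS 384, with 5 parallel replicates. Levofloxacin and the AMP Cbf-K16 served as positive controls.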

[2] = system: Bacillus subtilis ATCC 6633; assay type: cell-based
Outline: (§1)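 Read-out is MIC, from a CLSI-conformant twofold microdilution series, done in quintuplicate in parallel.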

[3] = system: Candida albicans ATCC MYA-2876; assay type: cell-based
Outline: as §1

[4] = system: Candida glabrata ATCC 15126; assay type: cell-based
Outline: as §1

Candida krusei ATCC 6258 = assay type: cell-based
Outline: as §1

[5] = system: Candida tropicalis ATCC 750; assay type: cell-based
Outline: as §1

Candida utilis ATCC 9950 = assay type: cell-based
Outline: as §1

[6] = system: Corynebacterium ATCC 7715; assay type: cell-based
Outline: as §1

Enterococcus ATCC 29212 = assay type: cell-based
Outline: as §1

[7] = system: Escherichia coli ATCC 25922; assay type: cell-based
Outline: as §1

[8] = system: Klebsiella pneumoniae ATCC 700603; assay type: cell-based
Outline: as §1

[9] = system: Pseudomonas aeruginosa ATCC 27853; assay type: cell-based
Outline: as §1

[10] = system: Salmonella typhimurium ATCC 14028; assay type: cell-based
Outline: as §1

[11] = system: Serratia marcescens ATCC 29021; assay type: cell-based
Outline: as §1

[12] = system: Staphylococcus aureus ATCC 25923; assay type: cell-based
Outline: as §1

[13] = system: Trichophyton ATCC MYA-4438; assay type: cell-based
Outline: as §1

[14] = system: Staphylococcus aureus (NRS 384); conditions: NRS 384, 3 h
Method: Trypsin (250 U/mg, pH=8.0) and AMPs (LV-1 to LV-30) were mixed in a ratio of 1:10 (w/w) and added to a reaction buffer (0.2 M sodium phosphate, 1 mM CaCl2), pH 7.5), and then incubated at 37° C. for 3 h.

[15] = system: Pseudomonas aeruginosa ATCC 27853; test: Injectable formulations on mice infected with peritonitis; assay type: in vivo, ICR mice; conditions: twice a day for 3 days; for Number of mice that died on each day after infection: day 1 / Number of mice that died on each day after infection: day 2 / Number of mice that died on each day after infection: day 3 / Number of mice that died on each day after infection: day 4 / Number of mice that died on each day after infection: day 5 / Average survival times (Days): n = 10; for Average survival times (Days): observed for 14 d
Outline: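 ICR mice of both sexes (10 per group) infected intraperitoneally with 0.2 mL P. aeruginosa ATCC 27853 at 1×10^9 CFU/mL. Injectable formulations dosed by body weight via tail vein twice daily for 3 days; deaths and survival time recorded over 14 d.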

[16] = system: Escherichia coli ATCC 25922; test: Oral formulations on mice with systemic bacterial infection; assay type: in vivo, ICR mice; conditions: three times a day for 7 days; for Number of mice that died on each day after infection: day 4 / Number of mice that died on each day after infection: day 5 / Number of mice that died on each day after infection: day 6 / Number of mice that died on each day after infection: day 7 / Number of mice that died on each day after infection: day 8 / Average survival times (Days): n = 10; for Average survival times (Days): observed for 14 d
Outline: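 ICR mice of both sexes, 10 per group, infected i.p. with 0.2 mL E. coli ATCC 25922 at 1×10^7 CFU/mL. Compounds gavaged by body weight immediately after infection, three times daily for 7 days; deaths and survival time recorded over 14 d observation.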

CC(=O)N[C@H](CCCNC(=N)N)C(=O)N[C@H](CCCCN)C(=O)N[C@H](CC(C)C)C(=O)N[C@H](CC(C)C)C(=O)N[C@H](Cc1ccc2ccccc2c1)C(=O)N[C@H](CCCNC(=N)N)C(=O)N[C@H](CC(C)C)C(=O)N[C@H](CCCCN)C(=O)N[C@H](Cc1ccc2ccccc2c1)C(=O)N[C@H](CCCNC(=N)N)C(=O)N[C@H](CCCCN)C(N)=O [LV-20] (Ac-[dR][dK][dL][dL][d2Nal][dR][dL][dK][d2Nal][dR][dK]-NH2)
MIC against Staphylococcus aureus (NRS 384) [1]: 1 mg/L (≈ 0.607 µM) | MIC Bacillus subtilis ATCC 6633 [2]: 2 mg/L (≈ 1.21 µM) | MIC Candida albicans ATCC MYA-2876 [3]: 4 mg/L (≈ 2.43 µM) | MIC Candida glabrata ATCC 15126 [4]: 8 mg/L (≈ 4.86 µM) | MIC Candida krusei ATCC 6258 (Candida krusei ATCC 6258): 8 mg/L (≈ 4.86 µM) | MIC Candida tropicalis ATCC 750 [5]: 8 mg/L (≈ 4.86 µM) | MIC Candida utilis ATCC 9950 (Candida utilis ATCC 9950): 8 mg/L (≈ 4.86 µM) | MIC Corynebacterium ATCC 7715 [6]: 2 mg/L (≈ 1.21 µM) | MIC Enterococcus ATCC 29212 (Enterococcus ATCC 29212): 4 mg/L (≈ 2.43 µM) | MIC Escherichia coli ATCC 25922 [7]: 1 mg/L (≈ 0.607 µM) | MIC Klebsiella pneumoniae ATCC 700603 [8]: 2 mg/L (≈ 1.21 µM) | MIC Pseudomonas aeruginosa ATCC 27853 [9]: 1 mg/L (≈ 0.607 µM) | MIC Salmonella typhimurium ATCC 14028 [10]: 1 mg/L (≈ 0.607 µM) | MIC Serratia marcescens ATCC 29021 [11]: 2 mg/L (≈ 1.21 µM) | MIC Staphylococcus aureus ATCC 25923 [12]: 1 mg/L (≈ 0.607 µM) | MIC Trichophyton ATCC MYA-4438 [13]: 8 mg/L (≈ 4.86 µM) | Trypsin MIC [14]: 1 mg/L | Number of mice that died on each day after infection: day 1 ([15]; 0.2 mg/kg via tail vein): 2 Mouse | Number of mice that died on each day after infection: day 2 ([15]; 0.2 mg/kg via tail vein): 1 Mouse | Number of mice that died on each day after infection: day 3 ([15]; 0.2 mg/kg via tail vein): 2 Mouse | Number of mice that died on each day after infection: day 4 ([15]; 0.2 mg/kg via tail vein): 1 Mouse | Number of mice that died on each day after infection: day 5 ([15]; 0.2 mg/kg via tail vein): 0 Mouse | Average survival times (Days) ([15]; 0.2 mg/kg via tail vein): 7.0** Days | Number of mice that died on each day after infection: day 1 ([15]; 1 mg/kg via tail vein): 1 Mouse | Number of mice that died on each day after infection: day 2 ([15]; 1 mg/kg via tail vein): 1 Mouse | Number of mice that died on each day after infection: day 3 ([15]; 1 mg/kg via tail vein): 1 Mouse | Number of mice that died on each day after infection: day 4 ([15]; 1 mg/kg via tail vein): 0 Mouse | Number of mice that died on each day after infection: day 5 ([15]; 1 mg/kg via tail vein): 0 Mouse | Average survival times (Days) ([15]; 1 mg/kg via tail vein): 10.4**** Days | Number of mice that died on each day after infection: day 1 ([15]; 5 mg/kg via tail vein): 1 Mouse | Number of mice that died on each day after infection: day 2 ([15]; 5 mg/kg via tail vein): 2 Mouse | Number of mice that died on each day after infection: day 3 ([15]; 5 mg/kg via tail vein): 0 Mouse | Number of mice that died on each day after infection: day 4 ([15]; 5 mg/kg via tail vein): 0 Mouse | Number of mice that died on each day after infection: day 5 ([15]; 5 mg/kg via tail vein): 0 Mouse | Average survival times (Days) ([15]; 5 mg/kg via tail vein): 10.3**** Days | survival time of mice infected with Pseudomonas aeruginosa ([15]; tail vein, observed 14 d): superior to those of the Levofloxacin group | Number of mice that died on each day after infection: day 4 ([16]; 0.2 mg/kg gavage): 1 Mouse | Number of mice that died on each day after infection: day 5 ([16]; 0.2 mg/kg gavage): 1 Mouse | Number of mice that died on each day after infection: day 6 ([16]; 0.2 mg/kg gavage): 2 Mouse | Number of mice that died on each day after infection: day 7 ([16]; 0.2 mg/kg gavage): 2 Mouse | Number of mice that died on each day after infection: day 8 ([16]; 0.2 mg/kg gavage): 0 Mouse | Average survival times (Days) ([16]; 0.2 mg/kg gavage): 9.1** Days | Number of mice that died on each day after infection: day 4 ([16]; 1 mg/kg gavage): 1 Mouse | Number of mice that died on each day after infection: day 5 ([16]; 1 mg/kg gavage): 1 Mouse | Number of mice that died on each day after infection: day 6 ([16]; 1 mg/kg gavage): 0 Mouse | Number of mice that died on each day after infection: day 7 ([16]; 1 mg/kg gavage): 1 Mouse | Number of mice that died on each day after infection: day 8 ([16]; 1 mg/kg gavage): 0 Mouse | Average survival times (Days) ([16]; 1 mg/kg gavage): 11.4**** Days | Number of mice that died on each day after infection: day 4 ([16]; 5 mg/kg gavage): 2 Mouse | Number of mice that died on each day after infection: day 5 ([16]; 5 mg/kg gavage): 0 Mouse | Number of mice that died on each day after infection: day 6 ([16]; 5 mg/kg gavage): 2 Mouse | Number of mice that died on each day after infection: day 7 ([16]; 5 mg/kg gavage): 0 Mouse | Number of mice that died on each day after infection: day 8 ([16]; 5 mg/kg gavage): 0 Mouse | Average survival times (Days) ([16]; 5 mg/kg gavage): 10.4*** Days | survival time of mice infected with Escherichia coli ([16]; gavage, observed 14 d): superior to those of the Levofloxacin group
